Data from patent US20150148387A1, “METHODS OF TREATMENT, DIAGNOSIS AND […] METHA[…] WHICH TARGET CERAMIDE METABOLIC […] AND […] SENESCENCE” (priority 2012, published 2015).

Assays:
[1] = system: primary mouse embryonic fibroblasts (MEF); format: cell-based
Procedure: Cells were washed with ice-cold phosphate-buffered saline (PBS) and scraped into 0.5 ml of methanol/water (1:1, vol:vol) containing the internal standards listed below. Protein concentrations were measured using the BCA protein assay (Pierce, Rockford, Ill., USA). Lipids were extracted with chloroform/methanol (2:1, vol:vol; 1.0 mL). The organic phases were collected, dried under nitrogen and dissolved in methanol for LC/MS analyses.
Helium was used as collision gas. […] Mobile phase composition was as described above.
Mouse embryonic fibroblasts (MEFs) were prepared from mice embryo as previously reported. Briefly, pregnant mice at day 13 post coitum were sacrificed and the uteri were dissected out. Each embryo was separated from the placenta and the head and visceral tissues were removed. The remaining body was minced in PBS and incubated with 0.1 mM trypsin/1 mM EDTA at 37° C. for 15 min. Two volumes of Dulbecco's Modified Eagle Medium (DMEM) containing 10% fetal bovine serum (FBS) was added and stood for 5 minutes to settle down large pieces of unbroken tissues. The supernatant was then removed and centrifuged at 200×g for 5 min and suspended in fresh DMEM containing 10% FBS. Cells were cultured at 37° C. with 5% CO2.

[2] = system: primary mouse embryonic fibroblasts (MEF); test: ROS production in MEF (CM-H2DCFDA); format: cell-based; conditions: CYP inhibitors with methamphetamine
Procedure: Production of ROS was measured using the fluorescent probe CM-H2DCFDA (Invitrogen). This carboxy derivative of fluorescein carries additional negative charges that improve its retention compared to noncarboxylated forms. For these experiments, MEFs were grown in DMEM without phenol red, for which anti-oxidative properties have been reported. Cells were plated to subconfluence in 12-well plates, washed 3 times with pre-warmed PBS and loaded for 30 min at 37° C./5% CO2 with […] CM-H2DCFDA in DMEM without phenol red (loading medium). Then the loading medium was removed and pre-warmed fresh medium containing the different CYP450 inhibitors in presence or absence of methamphetamine was added. Fluorescence (excitation at 485 nm, emission at 530 nm) was analyzed immediately, cells were incubated at 37° C./5% CO2, and fluorescence was analyzed at the indicated time points. ROS rate versus control (%) was calculated subtracting the percentage of ROS increasing from time zero in the methamphetamine-treated samples to the percentage of ROS increasing from time zero in vehicle-treated samples.

[3] = system: cytochrome P450 (CYP); test: Cell-associated methamphetamine content in MEF with CYP inhibitor (LC/MS); conditions: methamphetamine 1 mM 24 h, inhibitor 1-10 μM

For `Clc1ccccc1C(c1ccccc1)(c1ccccc1)n1ccnc1` [clotrimazole], the baseline ceramide content ([1]; MEF without methamphetamine, inhibitor 10 μM, n=3, […]) was 49.2±3 pmol-mg^−1 protein, the methamphetamine-induced ceramide accumulation ([1]; MEF, inhibitor 1-10 μM) was “decreased” and the “release of ROS evoked by methamphetamine” value [2] was “prevented”. For the same compound, the “levels of non-metabolized methamphetamine” value [3] was “increased”.
